This passage reports IC50 results from patent publication US20230043863A1, “HETEROAROMATIC DERIVATIVES FOR USE AS REGULATOR, PREPARATION METHOD THEREFOR AND USE THEREOF” (JIANGSU HANSOH PHARMACEUTICAL GROUP CO., LTD., priority 2018, published 2023).

Assay [1] deals with JAK1 (Homo sapiens, UniProt P23458). Briefly: JAK kinase activity inhibition, TR-FRET (JAK1). The class given is biochemical. The following applies: TR-FRET kinase assay. The essentials:
(§1)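 Steps: compound dilutions added; JAK kinase (0.1-20 nM) in HEPES/MgCl2 buffer added; peptide substrate and ATP mix started the reaction, 0.5-5 h at room temperature; EDTA and labeled antibody added, 1-24 h further. IC50 derived from 620/665 nm signals by four-parameter nonlinear fitting.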

Assay [2] concerns the target T1, JAK3 (Homo sapiens, UniProt P52333).
T1 sequence (P52333 1-1124): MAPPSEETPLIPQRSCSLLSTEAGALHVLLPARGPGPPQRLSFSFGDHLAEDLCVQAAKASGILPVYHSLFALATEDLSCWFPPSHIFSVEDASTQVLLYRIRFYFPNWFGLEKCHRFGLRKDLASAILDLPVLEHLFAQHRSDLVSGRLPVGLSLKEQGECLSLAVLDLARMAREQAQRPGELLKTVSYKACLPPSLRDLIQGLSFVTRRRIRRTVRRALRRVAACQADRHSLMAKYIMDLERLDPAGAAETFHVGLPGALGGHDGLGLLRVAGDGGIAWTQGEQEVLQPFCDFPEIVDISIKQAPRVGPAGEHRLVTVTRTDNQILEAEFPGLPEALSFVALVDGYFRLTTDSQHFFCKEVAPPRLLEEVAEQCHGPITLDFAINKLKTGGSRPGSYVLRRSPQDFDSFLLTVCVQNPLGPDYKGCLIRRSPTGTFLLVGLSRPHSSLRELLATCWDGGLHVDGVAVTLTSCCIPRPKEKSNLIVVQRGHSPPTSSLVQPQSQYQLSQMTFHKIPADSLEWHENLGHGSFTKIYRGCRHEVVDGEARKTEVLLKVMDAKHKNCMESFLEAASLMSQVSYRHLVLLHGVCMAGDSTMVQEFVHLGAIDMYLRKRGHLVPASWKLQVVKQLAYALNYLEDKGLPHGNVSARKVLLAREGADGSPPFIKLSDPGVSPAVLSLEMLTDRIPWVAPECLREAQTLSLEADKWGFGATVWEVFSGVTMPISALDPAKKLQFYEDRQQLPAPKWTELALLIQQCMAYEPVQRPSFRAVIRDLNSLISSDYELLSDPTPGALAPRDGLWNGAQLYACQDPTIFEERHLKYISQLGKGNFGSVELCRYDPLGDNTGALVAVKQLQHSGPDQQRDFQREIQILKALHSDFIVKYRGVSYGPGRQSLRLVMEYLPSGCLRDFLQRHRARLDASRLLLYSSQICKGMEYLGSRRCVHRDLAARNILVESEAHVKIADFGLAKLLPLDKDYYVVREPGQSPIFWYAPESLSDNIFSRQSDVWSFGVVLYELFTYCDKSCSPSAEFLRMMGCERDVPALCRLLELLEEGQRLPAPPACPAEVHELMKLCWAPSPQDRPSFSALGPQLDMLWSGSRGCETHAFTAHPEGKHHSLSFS
Put plainly: JAK kinase activity inhibition, TR-FRET (JAK3). The following applies: TR-FRET kinase assay. The class given is biochemical. As for the experimental part:
(§2) Experimental objective: The objective of this test is to test the inhibitory effect of the compound on JAK kinase activity.
(§3) Experimental method: the fluorescence resonance energy transfer (TR-FRET) method was used to test the inhibitory effect of the compound on JAK kinase activity, and the half inhibitory concentration IC50 of the compound on JAK kinase activity was obtained.
(§4) Kinase reaction was carried out in a white 384-well plate (PerkinElmer). 1-5 μL of different concentrations of the compound diluted with DMSO and ddH2O was added into each well, and 1-5 μL of the corresponding solvent was added to the positive control wells, followed by addition of 0.1-20 nM JAK kinase solution diluted with 1-5 μL of kinase buffer (HEPES 50-250 mM, MgCl2 5-20 mM, etc.) was added to each well. 1-5 μL of kinase buffer was added to the negative control well. 1-5 μL of substrate mixture containing peptide substrate and ATP was added. The plate was incubated at room temperature for 0.5-5 hours. […], EDTA and detection solution containing labeled antibody was added, and then the plate was incubated at room temperature for another 1-24 hours. The fluorescence signal value at about 620 nm and 665 nm of each well was measured by BioTek Synergy H1 plate reader, and the inhibition rate was calculated by the fluorescence signal value. According to the inhibition rate of different concentrations, the IC50 of the compound was obtained by curve fitting.
(§5) The percentage inhibition data of the wells treated with the compound was calculated with the positive control wells (DMSO control wells) and negative control wells (no kinase added) on the plate {% inhibition rate=100-[(test compound value-negative control value)]/(Positive control value-negative control value)×100}. IC50 value was calculated by using GraphPad prism to fit the data of different concentrations and corresponding percentage inhibition rates to a 4-parameter non-linear logic formula.
Background: In TR-FRET formats the signal depends on donor and acceptor labels being close together.

For assay [3], the system named is JAK-STAT signal pathway of U266 cells. Briefly: Inhibition of cellular JAK-STAT signal pathway (STAT3 phosphorylation) in U266 cells. The following applies: Homo sapiens, U-266, INF-a 1000 U/mL stimulation. The class given is cell-based, human. In short, it runs like this:
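U266 cells (100-300 K/well) preincubated 2 h at room temperature with serially diluted compound, then stimulated 15 min with IFN-α at 1000 U/mL final. After lysis, STAT3 phosphorylation read by LANCE Ultra TR-FRET (Eu antibody 0.5 nM, ULight antibody 5 nM, overnight) at 665 nm; IC50 from 4-parameter fit of inhibition versus DMSO and negative controls.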

Assay [4] deals with TYK2 (Homo sapiens, UniProt P29597). Put plainly: JAK kinase activity inhibition, TR-FRET (TYK2). The settings on record: TR-FRET kinase assay. The class given is biochemical. In short, it runs like this: as §1
Assay [5] addresses JAK2 (Homo sapiens, UniProt O60674). Briefly: JAK kinase activity inhibition, TR-FRET (JAK2). The class given is biochemical. The following applies: TR-FRET kinase assay. As for the experimental part:
as §2, §3, §4, §5

JAK2, sequence (O60674 whole entry): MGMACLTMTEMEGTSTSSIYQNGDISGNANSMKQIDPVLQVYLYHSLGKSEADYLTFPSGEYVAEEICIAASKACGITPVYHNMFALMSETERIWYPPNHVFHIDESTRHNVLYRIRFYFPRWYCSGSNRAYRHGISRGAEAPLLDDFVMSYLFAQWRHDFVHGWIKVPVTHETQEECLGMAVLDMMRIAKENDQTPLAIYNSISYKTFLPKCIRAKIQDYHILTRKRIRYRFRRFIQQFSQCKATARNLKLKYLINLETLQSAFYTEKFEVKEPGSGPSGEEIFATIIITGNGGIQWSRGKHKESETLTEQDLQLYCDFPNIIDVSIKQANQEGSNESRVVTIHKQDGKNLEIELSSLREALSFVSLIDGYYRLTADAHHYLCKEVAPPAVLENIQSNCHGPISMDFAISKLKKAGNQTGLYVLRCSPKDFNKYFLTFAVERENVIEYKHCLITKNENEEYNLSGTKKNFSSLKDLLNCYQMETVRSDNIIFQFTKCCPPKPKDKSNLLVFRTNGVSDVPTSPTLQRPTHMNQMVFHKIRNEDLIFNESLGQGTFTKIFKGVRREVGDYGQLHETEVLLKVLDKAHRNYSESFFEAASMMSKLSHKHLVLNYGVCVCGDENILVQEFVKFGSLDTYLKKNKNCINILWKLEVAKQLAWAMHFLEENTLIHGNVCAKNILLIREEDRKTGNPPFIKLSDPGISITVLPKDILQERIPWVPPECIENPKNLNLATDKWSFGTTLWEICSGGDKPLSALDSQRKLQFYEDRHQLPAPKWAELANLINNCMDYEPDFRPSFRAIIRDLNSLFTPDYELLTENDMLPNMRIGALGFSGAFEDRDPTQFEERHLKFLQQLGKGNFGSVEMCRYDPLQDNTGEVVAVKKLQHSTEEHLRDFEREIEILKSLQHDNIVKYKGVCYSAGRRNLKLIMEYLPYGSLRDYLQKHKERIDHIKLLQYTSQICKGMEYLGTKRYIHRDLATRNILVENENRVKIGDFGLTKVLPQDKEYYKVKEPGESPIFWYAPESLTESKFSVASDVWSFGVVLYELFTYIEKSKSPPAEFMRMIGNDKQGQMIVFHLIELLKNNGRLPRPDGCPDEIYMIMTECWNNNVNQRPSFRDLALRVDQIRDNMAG
TYK2, sequence (P29597 whole entry): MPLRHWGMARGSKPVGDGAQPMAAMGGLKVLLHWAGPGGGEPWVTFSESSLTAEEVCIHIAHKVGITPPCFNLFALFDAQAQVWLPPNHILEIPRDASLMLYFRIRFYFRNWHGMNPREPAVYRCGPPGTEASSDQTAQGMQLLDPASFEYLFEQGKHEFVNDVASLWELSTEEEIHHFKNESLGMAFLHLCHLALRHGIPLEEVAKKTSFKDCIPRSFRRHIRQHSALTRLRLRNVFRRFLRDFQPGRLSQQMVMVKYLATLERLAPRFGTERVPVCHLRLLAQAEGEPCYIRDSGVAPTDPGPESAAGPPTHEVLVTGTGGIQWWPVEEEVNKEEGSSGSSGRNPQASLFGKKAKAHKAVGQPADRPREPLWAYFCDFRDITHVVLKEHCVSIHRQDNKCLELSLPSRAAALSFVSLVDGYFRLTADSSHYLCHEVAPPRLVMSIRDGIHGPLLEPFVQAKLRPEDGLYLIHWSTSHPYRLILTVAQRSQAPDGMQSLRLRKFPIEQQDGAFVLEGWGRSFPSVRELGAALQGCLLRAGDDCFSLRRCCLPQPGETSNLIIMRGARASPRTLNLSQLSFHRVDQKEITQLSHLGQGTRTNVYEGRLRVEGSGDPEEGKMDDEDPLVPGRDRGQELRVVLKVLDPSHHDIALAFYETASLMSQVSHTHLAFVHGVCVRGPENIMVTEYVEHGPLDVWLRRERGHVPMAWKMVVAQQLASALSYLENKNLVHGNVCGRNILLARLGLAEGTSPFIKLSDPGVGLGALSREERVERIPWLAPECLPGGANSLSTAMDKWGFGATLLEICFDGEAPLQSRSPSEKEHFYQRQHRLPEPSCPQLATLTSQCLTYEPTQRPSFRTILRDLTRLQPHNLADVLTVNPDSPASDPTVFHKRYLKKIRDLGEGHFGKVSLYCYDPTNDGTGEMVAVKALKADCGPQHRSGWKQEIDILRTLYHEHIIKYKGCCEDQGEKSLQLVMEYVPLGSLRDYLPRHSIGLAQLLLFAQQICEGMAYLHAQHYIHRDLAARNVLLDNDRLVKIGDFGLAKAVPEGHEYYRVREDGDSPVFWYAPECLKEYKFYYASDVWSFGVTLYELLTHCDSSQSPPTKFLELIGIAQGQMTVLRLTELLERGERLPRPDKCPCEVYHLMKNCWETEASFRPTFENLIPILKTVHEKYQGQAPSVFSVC
JAK1, sequence (P23458 whole entry): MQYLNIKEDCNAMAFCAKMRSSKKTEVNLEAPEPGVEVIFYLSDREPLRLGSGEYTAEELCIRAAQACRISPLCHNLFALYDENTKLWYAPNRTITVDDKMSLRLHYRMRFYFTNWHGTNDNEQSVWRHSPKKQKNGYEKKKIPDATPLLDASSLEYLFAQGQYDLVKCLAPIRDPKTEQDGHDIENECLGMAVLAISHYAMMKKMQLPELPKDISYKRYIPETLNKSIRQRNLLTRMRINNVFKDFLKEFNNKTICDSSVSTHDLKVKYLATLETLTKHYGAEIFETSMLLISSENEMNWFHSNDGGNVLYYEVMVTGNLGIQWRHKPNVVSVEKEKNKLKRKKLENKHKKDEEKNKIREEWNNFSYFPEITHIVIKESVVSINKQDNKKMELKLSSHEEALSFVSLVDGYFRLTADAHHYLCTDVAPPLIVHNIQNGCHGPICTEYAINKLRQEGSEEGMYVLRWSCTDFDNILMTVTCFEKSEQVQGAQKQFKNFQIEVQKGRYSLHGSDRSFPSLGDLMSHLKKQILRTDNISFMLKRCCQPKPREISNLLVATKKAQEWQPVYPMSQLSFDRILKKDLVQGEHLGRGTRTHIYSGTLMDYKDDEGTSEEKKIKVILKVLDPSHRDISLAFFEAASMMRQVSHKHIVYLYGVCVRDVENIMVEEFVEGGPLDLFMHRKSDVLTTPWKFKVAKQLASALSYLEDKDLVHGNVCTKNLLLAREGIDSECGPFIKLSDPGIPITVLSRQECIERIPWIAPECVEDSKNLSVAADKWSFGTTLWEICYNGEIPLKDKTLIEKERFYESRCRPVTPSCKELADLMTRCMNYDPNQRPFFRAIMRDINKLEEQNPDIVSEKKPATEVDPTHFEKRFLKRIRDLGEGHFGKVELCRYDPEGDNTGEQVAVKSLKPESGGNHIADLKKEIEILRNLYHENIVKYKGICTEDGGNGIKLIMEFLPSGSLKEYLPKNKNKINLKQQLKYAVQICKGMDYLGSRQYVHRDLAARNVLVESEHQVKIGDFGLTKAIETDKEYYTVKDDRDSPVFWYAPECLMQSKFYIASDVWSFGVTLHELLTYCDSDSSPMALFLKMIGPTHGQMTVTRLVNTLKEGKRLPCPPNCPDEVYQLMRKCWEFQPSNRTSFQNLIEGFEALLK

As to `N#CCCN1[C@@H]2CC[C@H]1C[C@H](Nc1nc(Nc3cc(CO)[nH]n3)c3ccsc3n1)C2` [Embodiment 273], the half-inhibitory concentration (IC50) (commonly the concentration that inhibits the measured activity by half) in assay [1] is 1.28 nM; in assay [2] it was > 200 nM; in assay [3], 41.9 nM; in assay [4], 2.19 nM; in assay [5], 2.96 nM.

`Cc1cc(Nc2nc(N[C@@H]3C[C@H]4CCC[C@@H](C3)N4C(=O)CN(C)C)nc3sccc23)n[nH]1` [Embodiment 242, 2-(dimethylamine)-1-((3-exo)-3-((4-((5-methyl-1H-pyrazol-3-yl)amino)thieno[2,3-d]pyrimidin-2-yl)amino)-9-azabicyclo[3.3.1]non-9-yl)ethane-1-one]: the IC50 in assay [1] worked out at 0.21 nM; in assay [2] it was 6.58 nM; in assay [3] it was 0.24 nM; in assay [4], 0.89 nM; in assay [5], 0.85 nM.

Consider `Cc1cc(Nc2nc(N[C@@H]3C[C@H]4CC[C@@H](C3)N4CCC#N)nc3cc(-c4cnn(C)c4)ccc23)n[nH]1` [Embodiment 186, 3-((3-exo)-3-((4-((5-methyl-1H-pyrazol-3-yl)amino)-7-(1-methyl-1H-pyrazol-4-yl)quinazolin-2-yl)amino)-8-azabicyclo[3.2.1]oct-8-yl)propionitrile], for which the half-maximal inhibitory concentration (IC50) is 0.12 nM in assay [1], 14.7 nM in assay [2], 0.2 nM in assay [4] and 0.73 nM in assay [5].

As to `Cc1cc(Nc2nc(N(C)[C@@H]3C[C@H]4CCC[C@@H](C3)N4S(=O)(=O)N3CC(C#N)C3)nc3sccc23)n[nH]1` [Embodiment 239, 1-(((3-exo)-3-(methyl(4-((5-methyl-1H-pyrazol-3-yl)amino)thieno[2,3-d]pyrimidin-2-yl)amino)-9-azabicyclo[3.3.1]non-9-yl)sulfonyl)azacyclobutane-3-nitrile], the IC50 came to 0.13 nM in assay [1]; 3.11 nM in assay [2]; 39 nM in assay [3]; 0.22 nM in assay [4]; 1.25 nM in assay [5].

On to `Cc1cc(Nc2nc(N[C@@H]3C[C@H]4CC[C@@H](C3)N4C(=O)CN(C)C)nc3sccc23)n[nH]1` [Embodiment 243, 2-(dimethylamine)-1-((3-exo)-3-((4-((5-methyl-1H-pyrazol-3-yl)amino)thieno[2,3-d]pyrimidin-2-yl)amino)-8-azabicyclo[3.2.1]oct-8-yl)ethane-1-one], for which the IC50 is 0.53 nM in assay [1]; 148 nM in assay [2]; 0.24 nM in assay [3]; 1.48 nM in assay [4]; 2.42 nM in assay [5].

As to `Cc1cc(Nc2nc(N[C@@H]3C[C@H]4CC[C@@H](C3)N4CCC#N)nc3ccccc23)n[nH]1` [Embodiment 4, 3-((3-exo)-3-((4-((5-methyl-1H-pyrazol-3-yl)amino)quinazolin-2-yl)amino)-8-azabicyclo[3.2.1]oct-8-yl)propionitrile], the half-maximal inhibitory concentration (IC50) in assay [1] was 0.86 nM; in assay [2], 5.72 nM; in assay [3], 2.6 nM; in assay [4], 0.68 nM; in assay [5], 0.55 nM.

Take `Cc1cc(Nc2cc3ncccc3c(N3CC4CCC(C3)N4CCC#N)n2)n[nH]1` [Embodiment 109, 3-(3-(7-((5-methyl-1H-pyrazol-3-yl)amino)-1,6-diazanaphthalen-5-yl)-3,8-diazabicyclo[3.2.1]oct-8-yl)propionitrile]: the IC50 in assay [1] stood at 7.85 nM; in assay [2], 25.9 nM; in assay [4], 33.9 nM; in assay [5], 6.27 nM.

With `Cc1cc(Nc2nc(N[C@@H]3C[C@H]4CCC[C@@H](C3)N4S(=O)(=O)N3CC(C#N)C3)nc3ccccc23)n[nH]1` [Embodiment 217], the IC50 in assay [1] amounted to 0.04 nM; in assay [2], 1.92 nM; in assay [3], 36.7 nM; in assay [4] it was 0.1 nM; in assay [5], 1.61 nM.

Take `Cc1cc(Nc2nc(N[C@@H]3C[C@H]4CC[C@@H](C3)N4S(=O)(=O)c3cccnc3)nc3sccc23)n[nH]1` [Embodiment 265, N^4-(5-methyl-1H-pyrazol-3-yl)-N^2-((3-exo)-8(pyridin-3ylsulfonyl)-8-azabicyclo[3.2.1]oct-3-yl)thieno[2,3-d]pyrimidin-2,4-diamine]: the half-maximal inhibitory concentration (IC50) in assay [1] came out at 1.29 nM; in assay [2], 170 nM; in assay [3], 20.4 nM; in assay [4], 1 nM; in assay [5], 1.81 nM.

On to `Cc1cc(Nc2nc(N[C@@H]3C[C@H]4CC[C@@H](C3)N4CCC#N)nc3[nH]ccc23)n[nH]1` [Embodiment 3, 3-((3-exo)-3-((4-((5-methyl-1H-pyrazol-3-yl)amino)-7H-pyrrolo[2,3-d]pyrimidin-2-yl)amino)-8-azabicyclo[3.2.1]oct-8-yl)propionitrile], for which the IC50 in assay [1] is 0.11 nM; in assay [2], 0.81 nM; in assay [3], 4.5 nM; in assay [4] it was 0.17 nM; in assay [5] it was 0.29 nM.

Turning to `COc1ccc2c(Nc3cc(C)[nH]n3)nc(N[C@@H]3C[C@H]4CCC[C@@H](C3)N4S(=O)(=O)N3CC(C#N)C3)nc2c1` [Embodiment 219, 1-(((3-exo)-3-((7-methoxyl-4-((5-methyl-1H-pyrazol-3-yl)amino)quinazolin-2-yl)amino)-9-azabicyclo[3.3.1]non-9-yl)sulfonyl)azetindin-3-formonitrile], the concentration for half-maximal inhibition (IC50) in assay [1] was found to be 0.09 nM; in assay [2], 2.61 nM; in assay [3], 117 nM; in assay [4], 0.13 nM; in assay [5] it was 0.76 nM.

`N#CCCN1[C@@H]2CC[C@H]1C[C@H](Nc1nc(Nc3cnccn3)cc3ncccc13)C2` [Embodiment 29, 3-((3-exo)-3-((7-(pyrazin-2-ylamino)-1,6-diazanaphthalen-5-yl)amino)-8-azabicyclo[3.2.1]oct-8-yl)propionitrile]: the 50% inhibitory concentration (IC50) is 44.2 nM in assay [1], > 100 nM in assay [2], 47.3 nM in assay [4] and > 100 nM in assay [5].

With `Cc1cc(Nc2nc(N[C@@H]3C[C@H]4CC[C@@H](C3)N4CCC#N)nc3cnccc23)n[nH]1` [Embodiment 173, 3-((3-exo)-3-((4-((5-methyl-1H-pyrazol-3-yl)amino)pyrido[3,4-d]pyrimidin-2-yl)amino)-8-azabicyclo[3.2.1]oct-8-yl)propionitrile], the IC50 amounted to 1.07 nM in assay [1], 26.3 nM in assay [2], 0.84 nM in assay [4] and 1.15 nM in assay [5].

In the case of `N#CCCN1[C@@H]2CC[C@H]1C[C@H](Nc1nc(Nc3ncc(CO)s3)cc3ncccc13)C2` [Embodiment 2], the IC50 in assay [1] was found to be 0.11 nM; in assay [2], 8.95 nM; in assay [4], 2.3 nM; in assay [5], 0.53 nM.
